The record followed here is patent publication US12187728B2 (Raze Therapeutics, Inc., priority 2015, dated 2025).

A word on the IC50: it is the point on the concentration scale where inhibition reaches its midpoint.

The assay deals with T1, Human MTHFD2 (Homo sapiens, UniProt P13995).
T1 construct: residues 36-350 in Uniport ID P13995; His6 (N); made in house; host or cells: E. coli
T1 sequence (P13995 36-350): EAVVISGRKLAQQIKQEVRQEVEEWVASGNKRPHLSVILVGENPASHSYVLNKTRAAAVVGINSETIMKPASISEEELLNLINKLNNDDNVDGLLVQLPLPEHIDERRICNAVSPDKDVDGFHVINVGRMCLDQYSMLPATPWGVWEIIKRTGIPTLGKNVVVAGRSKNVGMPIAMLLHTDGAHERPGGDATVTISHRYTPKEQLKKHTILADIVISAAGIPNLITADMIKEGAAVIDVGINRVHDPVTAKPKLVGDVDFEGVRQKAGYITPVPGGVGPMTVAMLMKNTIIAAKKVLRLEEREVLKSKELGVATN
Put plainly: MTHFD2 Activity Assay (dehydrogenase activity, diaphorase/resazurin coupled fluorescence). Format: biochemical. The following applies: inhibitory activity (IC50 and/or binding constant); 0.2 nM MTHFD2, 11 concentrations. The gist of the method:
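Steps: compound + 0.2 nM enzyme, 15 min, pH 8.0 Hepes buffer; add 70 μM CH2-THF, 1 mM NAD+, 100 μM resazurin, diaphorase; 30 min; quench with EDTA; read fluorescence. Data normalized to DMSO (100%) and no-enzyme (0%) wells.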
For the compound `COc1ccc2c(c1)cc(Cn1c(=O)c3c(nc(N[C@H]4CC[C@@H](O)C4)n3C)n(C)c1=O)n2C` [Example 188, 8-((1S,3R)-3-hydroxycyclopentylamino)-1-((5-methoxy-1-methyl-1H-indol-2-yl)methyl)-3,7-dimethyl-1H-purine-2,6(3H,7H)-dione], the IC50 is 1000 to 5000 nM.

`Cn1c(Nc2ccncc2)nc2c1c(=O)n(Cc1ccc3ccccc3c1Cl)c(=O)n2C` [Example 375, 1-((1-chloronaphthalen-2-yl)methyl)-3,7-dimethyl-8-(pyridin-4-ylamino)-1H-purine-2,6(3H,7H)-dione]: the IC50 is 10 to 1000 nM.

Turning to `Cn1c(CCO)nc2c1c(=O)n(Cc1ccc(Cl)c(Cl)c1)c(=O)n2C` [Example 158, 1-(3,4-dichlorobenzyl)-8-(2-hydroxyethyl)-3,7-dimethyl-1H-purine-2,6(3H,7H)-dione], the 50% inhibitory concentration (IC50) lay within 10 to 1000 nM.

The compound `C[C@H](O)CNc1nc2c(c(=O)n(Cc3ccc(Cl)c(F)c3)c(=O)n2C)n1C` [Example 25, 1-[(4-chloro-3-fluorophenyl)methyl]-8-{[(2S)-2-hydroxypropyl]amino}-3,7-dimethyl-2,3,6,7-tetrahydro-1H-purine-2,6-dione] yielded a half-inhibitory concentration (IC50) of 1000 to 5000 nM.

Turning to `Cn1c(N[C@@H]2CCCC[C@@H]2O)nc2c1c(=O)n(Cc1ccc(Cl)c(Cl)c1)c(=O)n2C` (racemic) [Example 95, (±)-1-[(3,4-dichlorophenyl)methyl]-8-{[(cis)-2-hydroxycyclohexyl]amino}-3,7-dimethyl-2,3,6,7-tetrahydro-1H-purine-2,6-dione], the IC50 was 1000 to 5000 nM.

In the case of `Cn1c(Nc2ccncc2)nc2c1c(=O)n(Cc1cc3cccc(F)c3[nH]1)c(=O)n2C` [Example 366, 1-[(7-fluoro-1H-indol-2-yl)methyl]-3,7-dimethyl-8-(4-pyridylamino)purine-2,6-dione], the IC50 was in the range of 10 to 1000 nM.

For `Cn1c(C(N)CC2CC2)nc2c1c(=O)n(Cc1cc3c(Cl)cccc3[nH]1)c(=O)n2C` (centres unmarked) [Example 442], the half-inhibitory concentration (IC50) was 10 to 1000 nM.

Compound `CC(N)c1nc2c(c(=O)n(Cc3[nH]c4cccc(Cl)c4c3Cl)c(=O)n2C)n1C` (centres unmarked) [Example 456, 8-(1-aminoethyl)-1-[(3,4-dichloro-1H-indol-2-yl)methyl]-3,7-dimethyl-purine-2,6-dione] showed an IC50 of 10 to 1000 nM.

`Cn1c(Nc2ccc(CO)cc2)nc2c1c(=O)n(Cc1cc3c(Cl)cccc3[nH]1)c(=O)n2C` [Example 432, 1-((4-chloro-1H-indol-2-yl)methyl)-8-(4-(hydroxymethyl)phenylamino)-3,7-dimethyl-1H-purine-2,6(3H,7H)-dione]: the IC50 was 10 to 1000 nM.

In the case of `Cn1c(-n2nccc2N)nc2c1c(=O)n(Cc1cc3ccccc3[nH]1)c(=O)n2C` [Example 217, 1-((1H-indol-2-yl)methyl)-8-(5-amino-1H-pyrazol-1-yl)-3,7-dimethyl-1H-purine-2,6(3H,7H)-dione], the IC50 is 10 to 1000 nM.

`Cn1c(=O)n(Cc2ccc(Cl)c(Cl)c2)c(=O)c2c1ncn2CCO` [Example 248, 1-(3,4-dichlorobenzyl)-7-(2-hydroxyethyl)-3-methyl-1H-purine-2,6(3H,7H)-dione]: the IC50 was in the range of 5000 to 10000 nM.

With `Cn1cnc2c1c(=O)n(Cc1cc3cccnc3[nH]1)c(=O)n2C` [Example 290, 1-((1H-pyrrolo[2,3-b]pyridin-2-yl)methyl)-3,7-dimethyl-1H-purine-2,6(3H,7H)-dione], the IC50 was 5000 to 10000 nM.

For `Cn1c(Nc2ccnc(CCC(=O)O)n2)nc2c1c(=O)n(Cc1cc3c(Cl)cccc3[nH]1)c(=O)n2C` [Example 355, 3-(4-(1-((4-chloro-1H-indol-2-yl)methyl)-3,7-dimethyl-2,6-dioxo-2,3,6,7-tetrahydro-1H-purin-8-ylamino)pyrimidin-2-yl)propanoic acid], the IC50 fell in the range of 10 to 1000 nM.

`CN(C)C(=O)CCc1nccc(Nc2nc3c(c(=O)n(Cc4cc5c(Cl)cccc5[nH]4)c(=O)n3C)n2C)n1` [Example 405, 3-(4-(1-((4-chloro-1H-indol-2-yl)methyl)-3,7-dimethyl-2,6-dioxo-2,3,6,7-tetrahydro-1H-purin-8-ylamino)pyrimidin-2-yl)-N,N-dimethylpropanamide] had an IC50 of 10 to 1000 nM.

For `Cn1c(Nc2cccnn2)nc2c1c(=O)n(Cc1ccc(Cl)c(Cl)c1)c(=O)n2C` [Example 122, 1-(3,4-dichlorobenzyl)-3,7-dimethyl-8-(pyridazin-3-ylamino)-1H-purine-2,6(3H,7H)-dione], the IC50 was 10 to 1000 nM.

`Cn1c(CCN2CCOCC2)nc2c1c(=O)n(Cc1cc3cc(Cl)ccc3[nH]1)c(=O)n2C` [Example 229, 1-((5-chloro-1H-indol-2-yl)methyl)-3,7-dimethyl-8-(2-morpholinoethyl)-1H-purine-2,6(3H,7H)-dione] had an IC50 of 10 to 1000 nM.

In the case of `Cn1c(NC2(C(=O)O)CC2)nc2c1c(=O)n(Cc1ccc(Cl)c(Cl)c1)c(=O)n2C` [Example 147, 1-(1-(3,4-dichlorobenzyl)-3,7-dimethyl-2,6-dioxo-2,3,6,7-tetrahydro-1H-purin-8-ylamino)cyclopropanecarboxylic acid], the IC50 lay in the range of 10 to 1000 nM.

`Cn1c(Nc2ccncc2)nc2c1c(=O)n(Cc1cc3cnccc3[nH]1)c(=O)n2C` [Example 460, 1-((1H-pyrrolo[3,2-c]pyridin-2-yl)methyl)-3,7-dimethyl-8-(pyridin-4-ylamino)-1H-purine-2,6(3H,7H)-dione]: the IC50 fell in the range of 10 to 1000 nM.

In the case of `Cc1cc(Nc2nc3c(c(=O)n(Cc4cc5c(Cl)cccc5[nH]4)c(=O)n3C)n2C)nc(CCC(N)=O)n1` [Example 475, 3-(4-(1-((4-chloro-1H-indol-2-yl)methyl)-3,7-dimethyl-2,6-dioxo-2,3,6,7-tetrahydro-1H-purin-8-ylamino)-6-methylpyrimidin-2-yl)propanamide], the IC50 is 10 to 1000 nM.

As for `Cn1c(Nc2ccnc(C3CC(O)C3)c2)nc2c1c(=O)n(Cc1ccc(Cl)c(Cl)c1)c(=O)n2C` (centres unmarked) [Example 344, 1-(3,4-diclorobenzyl)-8-(2-(3-hydroxylcyclobutyl)pyridine-4-ylamino)-3,7-dimethyl-1-H-purine-2,6(3H,7H)-dione], the concentration for half-maximal inhibition (IC50) is 1000 to 5000 nM.

As to `Cn1c(Nc2cccc(C(=O)O)c2)nc2c1c(=O)n(Cc1ccc(Cl)c(Cl)c1)c(=O)n2C` [Example 286, 3-((1-(3,4-dichlorobenzyl)-3,7-dimethyl-2,6-dioxo-2,3,6,7-tetrahydro-1H-purin-8-yl)amino)benzoic acid], the half-inhibitory concentration (IC50) lay within 10 to 1000 nM.

For the compound `Cn1c(Nc2cccc(CCC(N)=O)n2)nc2c1c(=O)n(Cc1ccc(Cl)c(Cl)c1)c(=O)n2C` [Example 292, 3-(6-(1-(3,4-dichlorobenzyl)-3,7-dimethyl-2,6-dioxo-2,3,6,7-tetrahydro-1H-purin-8-ylamino)pyridin-2-yl)propanamide], the half-inhibitory concentration (IC50) lay within 10 to 1000 nM.

Regarding `C=Cc1nc2c(c(=O)n(Cc3ccc(Cl)c(Cl)c3)c(=O)n2C)n1C` [Example 160, 1-(3,4-dichlorobenzyl)-3,7-dimethyl-8-vinyl-1H-purine-2,6(3H,7H)-dione], the half-inhibitory concentration (IC50) was 1000 to 5000 nM.

With `Cn1cnc2c1c(=O)n(Cc1cc3cc(Cl)ccc3n1C)c(=O)n2C` [Example 242, 1-((5-chloro-1-methyl-1H-indol-2-yl)methyl)-3,7-dimethyl-1H-purine-2,6(3H,7H)-dione], the half-maximal inhibitory concentration (IC50) was 1000 to 5000 nM.

On to `Cn1c(Nc2ccnc(CCC(=O)O)c2)nc2c1c(=O)n(Cc1ccc(Cl)c(Cl)c1)c(=O)n2C` [Example 277, 3-(4-(1-(3,4-dichlorobenzyl)-3,7-dimethyl-2,6-dioxo-2,3,6,7-tetrahydro-1H-purin-8-ylamino)pyridin-2-yl)propanoic acid], for which the IC50 was 10 to 1000 nM.

Regarding `Cn1c(N[C@H]2CCC[C@H](C(=O)O)C2)nc2c1c(=O)n(Cc1ccc(Cl)c(Cl)c1)c(=O)n2C` (single isomer, unassigned) [Example 186, (1S,3S)-3-(1-(3,4-dichlorobenzyl)-3,7-dimethyl-2,6-dioxo-2,3,6,7-tetrahydro-1H-purin-8-ylamino)cyclohexanecarboxylic or (1R,3R)-3-(1-(3,4-dichlorobenzyl)-3,7-dimethyl-2,6-dioxo-2,3,6,7-tetrahydro-1H-purin-8-ylamino)cyclohexanecarboxylic acid], the IC50 fell in the range of 10 to 1000 nM.

Consider `CCn1c(=O)n(Cc2cc3c(Cl)cccc3[nH]2)c(=O)c2c1nc(C(C)N)n2C` (centres unmarked) [Example 441, 8-(1-aminoethyl)-1-((4-chloro-1H-indol-2-yl)methyl)-3-ethyl-7-methyl-1H-purine-2,6(3H,7H)-dione], for which the concentration for half-maximal inhibition (IC50) is 10 to 1000 nM.

Compound `Cn1c(Nc2cccc([C@H]3C[C@H]3C(=O)O)n2)nc2c1c(=O)n(Cc1cc3c(Cl)cccc3[nH]1)c(=O)n2C` (racemic) [Example 372, (±)-cis-2-(6-((1-((4-chloro-1H-indol-2-yl)methyl)-3,7-dimethyl-2,6-dioxo-2,3,6,7-tetrahydro-1H-purin-8-yl)amino)pyridin-2-yl)cyclopropane-1-carboxylic acid] returned a concentration for half-maximal inhibition (IC50) of 10 to 1000 nM.

`Cn1c(Nc2ccc(CC(=O)O)cc2)nc2c1c(=O)n(Cc1cc3c(Cl)cccc3[nH]1)c(=O)n2C` [Example 345, 2-[4-[[1-[(4-chloro-1H-indol-2-yl)methyl]-3,7-dimethyl-2,6-dioxo-purin-8-yl]amino]phenyl]acetic acid]: the 50% inhibitory concentration (IC50) was in the range of 10 to 1000 nM.
